In ChEMBL document CHEMBL1201862, “PubChem BioAssay data set” (2004):
Active and inactive are the calls of the source.

Experiments:
Cytochrome P450 2C9 = Cytochrome P450 2C9 (Homo sapiens, UniProt P11712)
Cytochrome P450 2D6 = Cytochrome P450 2D6 (Homo sapiens, UniProt P10635);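 further: CYP2D6 member of a cytochrome P450 panel assay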
Nonstructural protein 1 = Nonstructural protein 1 (Influenza A virus, UniProt Q194T2); type: functional, Influenza A virus (A/California/07/2009(H1N1))
[1] = HEK-293T cell viability reduction – luminescence, B-cell screen hits, cytotoxicity control for BCR NF-kB inhibitor project, dose response (AID 489021); type: functional, cell-based;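 further: HEK-293T cells carrying an NF-kB luciferase reporter; cells exposed to compound for about 14 hours before viability readout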
[2] = target: T1, Short transient receptor potential channel 4 (Mus musculus, UniProt Q9QUQ5); experiment: calcium entry via TRPC4 opening agents – cell-based, HEK293 TRPC4/mu-opioid, Fluo-4 calcium, dose response (AID 434937); type: functional
T1 sequence (Q9QUQ5 whole entry): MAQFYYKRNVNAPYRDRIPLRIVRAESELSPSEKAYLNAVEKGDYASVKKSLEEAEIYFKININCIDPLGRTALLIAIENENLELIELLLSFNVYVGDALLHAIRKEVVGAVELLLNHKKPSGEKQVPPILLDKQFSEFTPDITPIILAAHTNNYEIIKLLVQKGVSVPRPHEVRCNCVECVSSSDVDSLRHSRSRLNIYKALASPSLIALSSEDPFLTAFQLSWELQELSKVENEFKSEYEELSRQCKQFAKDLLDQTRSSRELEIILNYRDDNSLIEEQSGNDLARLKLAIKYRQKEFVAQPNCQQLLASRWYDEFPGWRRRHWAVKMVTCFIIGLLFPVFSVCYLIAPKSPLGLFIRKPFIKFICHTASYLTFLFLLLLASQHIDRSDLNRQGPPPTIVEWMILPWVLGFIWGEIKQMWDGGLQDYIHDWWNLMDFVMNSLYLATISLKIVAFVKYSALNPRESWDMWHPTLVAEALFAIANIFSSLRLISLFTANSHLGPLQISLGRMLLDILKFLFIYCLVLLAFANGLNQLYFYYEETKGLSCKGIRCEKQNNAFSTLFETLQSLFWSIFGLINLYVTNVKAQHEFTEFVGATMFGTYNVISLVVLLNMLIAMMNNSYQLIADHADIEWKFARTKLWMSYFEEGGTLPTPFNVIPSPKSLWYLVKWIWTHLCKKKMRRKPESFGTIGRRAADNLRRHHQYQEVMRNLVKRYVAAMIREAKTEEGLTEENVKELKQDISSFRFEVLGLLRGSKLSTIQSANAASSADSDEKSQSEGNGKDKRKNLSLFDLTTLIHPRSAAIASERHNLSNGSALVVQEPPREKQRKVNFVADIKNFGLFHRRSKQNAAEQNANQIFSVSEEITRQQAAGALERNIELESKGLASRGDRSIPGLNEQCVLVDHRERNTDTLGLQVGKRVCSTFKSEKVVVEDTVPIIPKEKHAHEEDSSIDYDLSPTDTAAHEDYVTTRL

[3] = system: Streptococcus sp. 'group A'; experiment: Streptococcus pyogenes SK(-)GAS viability under kanamycin – luminescence, BacTiterGlo, confirmation, counter-screen for streptokinase expression inhibitor project, dose response (AID 1900); type: functional, organism-based
Streptococcus = experiment: GAS UMAA2166 growth inhibition – luminescence, BacTiterGlo, counter-screen for streptokinase expression inhibitor project, dose response (AID 1915); type: functional, organism-based;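 further: potency for reduction of bacterial viability or growth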
[4] = THP-1 cell cytotoxicity, dose response, cytotoxicity control for non-replicating M. tuberculosis project (AID 489025); type: functional
[5] = Luminescence Cell-Based Dose Retest to Confirm Inhibitors of Cancer Stem Cells. [Related pubchem assays (depositor defined):AID2717, AID2721]; type: functional; details: Homo sapiens
cells = type: functional
[6] = target: T2, Corticotropin-releasing factor receptor 2/Corticotropin-releasing factor-binding protein (Homo sapiens, UniProt P24387+Q13324); experiment: activators of CRF receptor 2 with binding protein – uHTS hits, confirmation (AID 602473); type: functional; details: read-out: EC50_Mean
T2 sequence (Q13324 whole entry): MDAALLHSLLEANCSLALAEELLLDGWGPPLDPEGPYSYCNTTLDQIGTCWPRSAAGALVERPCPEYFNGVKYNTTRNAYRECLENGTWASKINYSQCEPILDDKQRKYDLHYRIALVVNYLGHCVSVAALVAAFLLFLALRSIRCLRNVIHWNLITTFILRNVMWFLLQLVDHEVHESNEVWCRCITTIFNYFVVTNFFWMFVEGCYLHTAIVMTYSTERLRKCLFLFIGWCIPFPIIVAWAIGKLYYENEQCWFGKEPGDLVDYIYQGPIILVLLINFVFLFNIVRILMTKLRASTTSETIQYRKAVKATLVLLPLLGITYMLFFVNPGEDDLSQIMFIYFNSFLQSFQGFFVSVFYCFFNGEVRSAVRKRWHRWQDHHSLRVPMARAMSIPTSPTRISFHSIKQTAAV
T2 sequence (P24387 whole entry): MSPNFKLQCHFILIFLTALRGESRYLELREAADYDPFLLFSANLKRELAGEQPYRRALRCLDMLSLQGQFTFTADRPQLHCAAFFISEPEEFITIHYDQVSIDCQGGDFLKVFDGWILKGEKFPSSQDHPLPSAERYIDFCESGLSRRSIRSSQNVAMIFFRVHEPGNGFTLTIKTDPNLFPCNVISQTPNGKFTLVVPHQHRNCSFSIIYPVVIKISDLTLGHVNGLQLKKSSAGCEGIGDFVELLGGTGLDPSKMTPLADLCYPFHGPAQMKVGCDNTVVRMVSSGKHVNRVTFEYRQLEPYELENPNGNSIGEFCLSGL

SUMO-activating enzyme = SUMO-activating enzyme (Homo sapiens, UniProt Q9UBT2); experiment: blockers of UBC9-mediated SUMO conjugation – biochemical, AlphaScreen, SUMOylation inhibitor project, confirmation (AID 2018); type: functional
[7] = microbe, parasite or virus in culture; type: functional; details: Mycobacterium tuberculosis
[8] = target: T3, Heat shock factor protein 1 (Mus musculus, UniProt P38532); experiment: decrease of HSF1-responsive luciferase luminescence – cell-based, NIH3T3, dose retest, confirmation (AID 2382); type: functional;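 further: NIH3T3 fibroblasts with HSF1-driven luciferase reporter stressed by proteasome inhibitor MG132; luminescence from HSF1-driven luciferase expression after 8 hours of MG132 stress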
T3 sequence (P38532 whole entry): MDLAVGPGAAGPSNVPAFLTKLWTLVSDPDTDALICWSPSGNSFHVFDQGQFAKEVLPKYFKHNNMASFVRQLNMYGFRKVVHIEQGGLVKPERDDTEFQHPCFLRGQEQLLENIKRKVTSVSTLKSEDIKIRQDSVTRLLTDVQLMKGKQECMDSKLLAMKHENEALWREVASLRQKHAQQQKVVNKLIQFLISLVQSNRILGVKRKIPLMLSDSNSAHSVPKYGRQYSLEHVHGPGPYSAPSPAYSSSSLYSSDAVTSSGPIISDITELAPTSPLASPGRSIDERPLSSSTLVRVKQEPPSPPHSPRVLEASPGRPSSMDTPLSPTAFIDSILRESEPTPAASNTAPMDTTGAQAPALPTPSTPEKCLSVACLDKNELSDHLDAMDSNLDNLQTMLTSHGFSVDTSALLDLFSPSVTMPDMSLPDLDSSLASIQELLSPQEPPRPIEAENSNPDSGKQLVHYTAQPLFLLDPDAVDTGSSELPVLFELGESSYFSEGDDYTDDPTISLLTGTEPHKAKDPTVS

Bcl-2-related protein A1 = target: T4, Bcl-2-related protein A1 (Mus musculus, UniProt Q07440); type: functional;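 further: confirmatory dose–response counterscreen on Bfl-1, used to check hits from a UBC13 polyubiquitin inhibitor campaign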
T4 sequence (Q07440 whole entry): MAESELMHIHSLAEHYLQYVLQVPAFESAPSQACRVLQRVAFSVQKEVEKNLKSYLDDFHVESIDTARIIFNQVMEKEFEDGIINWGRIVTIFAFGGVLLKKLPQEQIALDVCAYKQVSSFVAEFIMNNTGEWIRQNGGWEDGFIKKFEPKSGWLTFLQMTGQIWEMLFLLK

[9] = target: T5, Ubiquitin-conjugating enzyme E2 N (Homo sapiens, UniProt P61088); type: functional
T5 sequence (P61088 whole entry): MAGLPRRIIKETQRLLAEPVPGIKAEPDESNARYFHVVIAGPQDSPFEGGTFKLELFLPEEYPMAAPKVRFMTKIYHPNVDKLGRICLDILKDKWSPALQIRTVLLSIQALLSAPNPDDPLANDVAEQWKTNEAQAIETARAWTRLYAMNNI

[10] = target: T5, Ubiquitin-conjugating enzyme E2 N; type: functional; remark: listed apart in the source

Nonstructural protein 1, sequence (Q194T2 whole entry): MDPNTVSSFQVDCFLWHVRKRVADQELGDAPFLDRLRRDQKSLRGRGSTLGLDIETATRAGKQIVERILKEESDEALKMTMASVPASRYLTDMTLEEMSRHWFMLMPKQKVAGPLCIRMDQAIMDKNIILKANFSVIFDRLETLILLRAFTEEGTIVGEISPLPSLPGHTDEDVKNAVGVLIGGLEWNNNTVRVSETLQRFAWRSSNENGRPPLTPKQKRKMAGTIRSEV
Cytochrome P450 2C9, sequence (P11712 whole entry): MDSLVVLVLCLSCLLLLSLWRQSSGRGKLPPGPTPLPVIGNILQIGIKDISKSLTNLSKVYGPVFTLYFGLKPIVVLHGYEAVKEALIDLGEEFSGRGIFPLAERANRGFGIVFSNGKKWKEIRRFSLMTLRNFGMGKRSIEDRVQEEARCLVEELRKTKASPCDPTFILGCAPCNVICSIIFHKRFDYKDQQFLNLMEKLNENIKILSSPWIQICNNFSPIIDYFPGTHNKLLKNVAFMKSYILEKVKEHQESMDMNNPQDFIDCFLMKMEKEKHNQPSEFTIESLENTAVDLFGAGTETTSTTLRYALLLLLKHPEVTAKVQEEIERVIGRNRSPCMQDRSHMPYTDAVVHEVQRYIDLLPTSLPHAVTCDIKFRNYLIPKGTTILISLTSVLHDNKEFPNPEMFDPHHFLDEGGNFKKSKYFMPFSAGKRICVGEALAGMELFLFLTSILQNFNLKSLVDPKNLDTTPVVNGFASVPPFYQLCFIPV
Cytochrome P450 2D6, sequence (P10635 whole entry): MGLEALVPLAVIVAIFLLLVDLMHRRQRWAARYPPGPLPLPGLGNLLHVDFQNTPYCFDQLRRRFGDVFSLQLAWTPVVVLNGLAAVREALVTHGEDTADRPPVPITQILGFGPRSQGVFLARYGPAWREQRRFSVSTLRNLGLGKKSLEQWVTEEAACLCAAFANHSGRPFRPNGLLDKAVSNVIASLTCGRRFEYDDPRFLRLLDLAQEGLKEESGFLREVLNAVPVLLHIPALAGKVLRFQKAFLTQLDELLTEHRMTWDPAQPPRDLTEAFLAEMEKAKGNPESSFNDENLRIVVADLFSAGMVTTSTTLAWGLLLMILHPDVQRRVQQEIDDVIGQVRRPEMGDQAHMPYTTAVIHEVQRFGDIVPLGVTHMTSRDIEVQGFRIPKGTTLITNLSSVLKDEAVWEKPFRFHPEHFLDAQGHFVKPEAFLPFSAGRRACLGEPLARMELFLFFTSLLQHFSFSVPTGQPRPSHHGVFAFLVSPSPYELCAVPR
SUMO-activating enzyme, sequence (Q9UBE0 whole entry): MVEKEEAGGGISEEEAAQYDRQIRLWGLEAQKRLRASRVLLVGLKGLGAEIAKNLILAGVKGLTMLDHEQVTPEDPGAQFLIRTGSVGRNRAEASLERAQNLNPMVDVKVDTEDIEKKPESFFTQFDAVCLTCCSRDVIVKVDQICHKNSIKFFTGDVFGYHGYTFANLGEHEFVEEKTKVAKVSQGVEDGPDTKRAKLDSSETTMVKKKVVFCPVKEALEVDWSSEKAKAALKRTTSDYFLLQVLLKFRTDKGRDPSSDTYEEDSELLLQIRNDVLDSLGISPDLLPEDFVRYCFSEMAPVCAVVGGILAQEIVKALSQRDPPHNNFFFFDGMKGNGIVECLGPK
SUMO-activating enzyme, sequence (Q9UBT2 whole entry): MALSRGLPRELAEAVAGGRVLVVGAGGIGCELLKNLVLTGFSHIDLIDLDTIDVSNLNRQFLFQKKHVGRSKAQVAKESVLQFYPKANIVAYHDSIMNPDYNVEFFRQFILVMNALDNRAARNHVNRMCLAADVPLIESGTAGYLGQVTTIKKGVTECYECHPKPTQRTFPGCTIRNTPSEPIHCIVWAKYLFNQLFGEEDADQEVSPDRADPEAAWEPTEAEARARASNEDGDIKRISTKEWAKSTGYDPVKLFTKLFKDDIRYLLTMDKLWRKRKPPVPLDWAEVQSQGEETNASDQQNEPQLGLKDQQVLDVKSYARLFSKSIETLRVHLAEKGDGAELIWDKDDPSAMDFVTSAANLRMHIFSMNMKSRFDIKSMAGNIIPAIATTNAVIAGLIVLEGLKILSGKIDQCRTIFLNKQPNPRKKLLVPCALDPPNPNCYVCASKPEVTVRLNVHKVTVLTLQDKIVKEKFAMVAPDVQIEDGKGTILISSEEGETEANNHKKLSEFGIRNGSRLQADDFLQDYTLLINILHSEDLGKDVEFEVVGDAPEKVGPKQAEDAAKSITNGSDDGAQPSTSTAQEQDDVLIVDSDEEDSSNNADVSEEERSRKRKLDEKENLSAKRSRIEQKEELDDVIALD

Q: For COc1cccc(OCC(=O)NN=C2c3ccccc3-c3ccccc32)c1, which AC50 (Cytochrome P450 2C9) is on record?
A: inconclusive

Q: Which results are given for CSc1ccc(S(=O)(=O)Nc2ccc3c4c(cccc24)CC3)cc1?
A: AC50 (Cytochrome P450 2D6): 14.1 µM (inconclusive); AC50 (Cytochrome P450 2C9): inconclusive

Q: For NNc1nccc(Nc2ccccc2C(=O)O)n1, which IC50 (Nonstructural protein 1) is on record?
A: 8.21 µM (active)

Q: Which IC50 [1] does the source give for Cc1ccc(S(=O)(=O)N2CCCCC2CCNC(=O)C(=O)NCc2ccncc2)cc1 (stereo not given) here?
A: > 80 µM (inactive)

Q: For COc1ccc(C(CCNCc2ccc(N(C)C)cc2)c2ccccc2OC)cc1 (stereo not given), which EC50 [2] is on record?
A: 10.6 µM (active)

Q: What about the IC50 (Nonstructural protein 1) of the same compound?
A: 20.2 µM (active)

Q: With O=C(Nc1nnc(-c2ccc(Cl)cc2)o1)c1nc2ccccc2s1 as the compound, how does the EC50 [3] read?
A: 0.289 µM (active)

Q: What about the EC50 (Streptococcus) of the same compound?
A: 0.936 µM (active)

Q: What about the CC50 [4] of the same compound?
A: > 40 µM (active)

Q: What about the AC50 [5] of the same compound?
A: 3.56 µM (active)

Q: What about the IC50 (cells) of the same compound?
A: 1.5 µM (active)

Q: What about the EC50 [6] of the same compound?
A: 2.26 µM (active)

Q: For NC(=O)CC(NC(=O)Cc1cccc2ccccc12)c1ccc(NC2CCCCCC2)c([N+](=O)[O-])c1 (stereo not given), which IC50 (SUMO-activating enzyme) is on record?
A: > 100 µM (inactive)

Q: What does the source list for CC(C)N1C(=O)NC(=O)C2(Cc3cc([N+](=O)[O-])ccc3N(C)C2c2ccccc2)C1=O (stereo not given)?
A: CC50 [7]: > 40 µM (active); CC50 [4]: > 40 µM (active); IC50 (cells): 27.3 µM (active)

Q: For CCn1c(=O)cc(OCC(=O)Nc2ccc(OC)c(OC)c2)c2ccccc21, which IC50 [1] is on record?
A: > 80 µM (inactive)

Q: What does the source list for Cc1nn(CC(=O)NCCCN2CCC(Cc3ccccc3)CC2)c(=O)c2cc(-c3ccccc3)nn12?
A: EC50 [8]: > 195 µM (not active); IC50 (Bcl-2-related protein A1): > 20 µM (inactive); IC50 [9]: 11.4 µM (active); IC50 [10]: 4.59 µM (active)

Q: Which IC50 (Bcl-2-related protein A1) does the source give for CCc1cccc2c(C(=O)C(NC(C)CC)c3ccccc3)c[nH]c12 (stereo not given) here?
A: > 20 µM (inactive)

Q: What about the IC50 [9] of the same compound?
A: 16.6 µM (active)

Q: And the IC50 [10]?
A: 9.25 µM (active)
